ChEMBL document CHEMBL5696441 (Nat Chem Biol, 2011)

Key:
[1] = biological target: Phosphatidylinositol 4-phosphate 5-kinase type-1 alpha (Homo sapiens) (UniProt Q99755); assay: Inhibition of PIP5K1A (unknown origin) assessed as remaining activity at 1 uM by Kinome scan method relative to control
[2] = test system: Epidermal growth factor receptor (Homo sapiens), P00533 [L861Q]; assay: Inhibition of EGFR L861Q mutant (unknown origin) assessed as remaining activity at 1 uM by Kinome scan method relative to control
[3] = biological target: Casein kinase II subunit alpha (Homo sapiens) (UniProt P68400); assay: Inhibition of human CK2alpha1 assessed as residual activity at 1 uM using casein as substrate in presence of 33P-ATP by ProQinase assay relative to control
[4] = Anti-inflammatory activity against human derived high respond PBMC cells assessed as inhibition in stimulated IL-8 cytokine release incubated for 2 hrs in the presence of LPS/SEB/aCD28 by Luminex based sandwich immunoassay; format: functional, cell-based
[5] = biological target: Fibroblast growth factor receptor 4 (Homo sapiens) (UniProt P22455); assay: Inhibition of FGFR4 (unknown origin) assessed as remaining activity at 1 uM by Kinome scan method relative to control
[6] = test system: Tyrosine-protein kinase ABL1 (Homo sapiens), P00519 [H396P]; assay: Inhibition of human ABL1 H396P mutant assessed as residual activity at 1 uM using Poly(Ala,Glu,Lys,Tyr)6:2:5:1 as substrate in presence of 33P-ATP by ProQinase assay relative to control
[7] = biological target: CDK1/Cyclin E (Homo sapiens) (UniProt P06493+P24864); assay: Inhibition of human CDK1/Cyclin E1 assessed as residual activity at 1 uM using RBER-CHKtide as substrate in presence of 33P-ATP by ProQinase assay relative to control; format: protein-complex assay
[8] = biological target: Myosin light chain kinase, smooth muscle (Homo sapiens) (UniProt Q15746); assay: Inhibition of human MYLK assessed as residual activity at 1 uM using RB-S6P as substrate in presence of 33P-ATP by ProQinase assay relative to control
[9] = biological target: Dual specificity protein kinase TTK (Homo sapiens) (UniProt P33981); assay: Inhibition of human TTK assessed as residual activity at 1 uM using RBER-CHKtide as substrate in presence of 33P-ATP by ProQinase assay relative to control
[10] = biological target: Protein kinase C delta type (Homo sapiens) (UniProt Q05655); assay: Inhibition of PRKCD (unknown origin) assessed as remaining activity at 1 uM by Kinome scan method relative to control
[11] = test system: Epidermal growth factor receptor (Homo sapiens), P00533 [UNDEFINED MUTATION]; assay: Inhibition of EGFR L747-T751del/Sins mutant (unknown origin) assessed as remaining activity at 1 uM by Kinome scan method relative to control
[12] = biological target: STE20-like serine/threonine-protein kinase (Homo sapiens) (UniProt Q9H2G2); assay: Inhibition of SLK (unknown origin) assessed as remaining activity at 1 uM by Kinome scan method relative to control
[13] = Anti-inflammatory activity against human derived high respond PBMC cells assessed as inhibition in stimulated INFgamma cytokine release incubated for 2 hrs in the presence of LPS/SEB/aCD28 by Luminex based sandwich immunoassay; format: functional, cell-based
[14] = biological target: Tyrosine-protein kinase ABL2 (Homo sapiens) (UniProt P42684); assay: Inhibition of human ABL2 assessed as residual activity at 1 uM using Poly(Ala,Glu,Lys,Tyr)6:2:5:1 as substrate in presence of 33P-ATP by ProQinase assay relative to control
[15] = biological target: Protein-tyrosine kinase 2-beta (Homo sapiens) (UniProt Q14289); assay: Inhibition of human PYK2 assessed as residual activity at 1 uM using polyEY as substrate in presence of 33P-ATP by ProQinase assay relative to control
[16] = biological target: Beta-adrenergic receptor kinase 1 (Homo sapiens) (UniProt P25098); assay: Inhibition of human GRK2 assessed as residual activity at 1 uM using casein as substrate in presence of 33P-ATP by ProQinase assay relative to control
[17] = biological target: AP2-associated protein kinase 1 (Homo sapiens) (UniProt Q2M2I8); assay: Inhibition of AAK1 (unknown origin) assessed as remaining activity at 1 uM by Kinome scan method relative to control
[18] = biological target: Platelet-derived growth factor receptor beta (Homo sapiens) (UniProt P09619); assay: Inhibition of PDGFRbeta (unknown origin) assessed as remaining activity at 1 uM by Kinome scan method relative to control
[19] = biological target: Serine/threonine-protein kinase Sgk2 (Homo sapiens) (UniProt Q9HBY8); assay: Inhibition of human SGK2 assessed as residual activity at 1 uM using RBER-GSK3(14-27) as substrate in presence of 33P-ATP by ProQinase assay relative to control
[20] = biological target: Ribosomal protein S6 kinase alpha-5 (Homo sapiens) (UniProt O75582); assay: Inhibition of human RPS6KA5 assessed as residual activity at 1 uM using RBER-CHKtide as substrate in presence of 33P-ATP by ProQinase assay relative to control
[21] = biological target: Serine/threonine-protein kinase 26 (Homo sapiens) (UniProt Q9P289); assay: Inhibition of human MST4 assessed as residual activity at 1 uM using RB-CTF as substrate in presence of 33P-ATP by ProQinase assay relative to control
[22] = biological target: Mitogen-activated protein kinase 10 (Homo sapiens) (UniProt P53779); assay: Inhibition of JNK3 (unknown origin) assessed as remaining activity at 1 uM by Kinome scan method relative to control
[23] = biological target: Insulin receptor-related protein (Homo sapiens) (UniProt P14616); assay: Inhibition of human INSRR assessed as residual activity at 1 uM using poly(Ala,Glu,Lys,Tyr)6:2:5:1 as substrate in presence of 33P-ATP by ProQinase assay relative to control
[24] = test system: Phosphatidylinositol 4,5-bisphosphate 3-kinase catalytic subunit alpha isoform (Homo sapiens), P42336 [E545A]; assay: Inhibition of PIK3CA E545A mutant (unknown origin) assessed as remaining activity at 1 uM by Kinome scan method relative to control
[25] = biological target: Serine/threonine-protein kinase Nek3 (Homo sapiens) (UniProt P51956); assay: Inhibition of human NEK3 assessed as residual activity at 1 uM using RBER-CHKtide as substrate in presence of 33P-ATP by ProQinase assay relative to control
[26] = biological target: Serine/threonine-protein kinase PAK 3 (Homo sapiens) (UniProt O75914); assay: Inhibition of human PAK3 assessed as residual activity at 1 uM using bio-4xCHKT as substrate in presence of 33P-ATP by ProQinase assay relative to control
[27] = test system: Tyrosine-protein kinase ABL1 (Homo sapiens), P00519 [G250E]; assay: Inhibition of human ABL1 G250E mutant assessed as residual activity at 1 uM using Poly(Ala,Glu,Lys,Tyr)6:2:5:1 as substrate in presence of 33P-ATP by ProQinase assay relative to control
[28] = test system: Epidermal growth factor receptor (Homo sapiens), P00533 [UNDEFINED MUTATION]; assay: Inhibition of EGFR L747-E749del/A750P mutant (unknown origin) assessed as remaining activity at 1 uM by Kinome scan method relative to control

Chain of Protein-tyrosine kinase 2-beta (Homo sapiens) (Q14289 whole entry, looked up): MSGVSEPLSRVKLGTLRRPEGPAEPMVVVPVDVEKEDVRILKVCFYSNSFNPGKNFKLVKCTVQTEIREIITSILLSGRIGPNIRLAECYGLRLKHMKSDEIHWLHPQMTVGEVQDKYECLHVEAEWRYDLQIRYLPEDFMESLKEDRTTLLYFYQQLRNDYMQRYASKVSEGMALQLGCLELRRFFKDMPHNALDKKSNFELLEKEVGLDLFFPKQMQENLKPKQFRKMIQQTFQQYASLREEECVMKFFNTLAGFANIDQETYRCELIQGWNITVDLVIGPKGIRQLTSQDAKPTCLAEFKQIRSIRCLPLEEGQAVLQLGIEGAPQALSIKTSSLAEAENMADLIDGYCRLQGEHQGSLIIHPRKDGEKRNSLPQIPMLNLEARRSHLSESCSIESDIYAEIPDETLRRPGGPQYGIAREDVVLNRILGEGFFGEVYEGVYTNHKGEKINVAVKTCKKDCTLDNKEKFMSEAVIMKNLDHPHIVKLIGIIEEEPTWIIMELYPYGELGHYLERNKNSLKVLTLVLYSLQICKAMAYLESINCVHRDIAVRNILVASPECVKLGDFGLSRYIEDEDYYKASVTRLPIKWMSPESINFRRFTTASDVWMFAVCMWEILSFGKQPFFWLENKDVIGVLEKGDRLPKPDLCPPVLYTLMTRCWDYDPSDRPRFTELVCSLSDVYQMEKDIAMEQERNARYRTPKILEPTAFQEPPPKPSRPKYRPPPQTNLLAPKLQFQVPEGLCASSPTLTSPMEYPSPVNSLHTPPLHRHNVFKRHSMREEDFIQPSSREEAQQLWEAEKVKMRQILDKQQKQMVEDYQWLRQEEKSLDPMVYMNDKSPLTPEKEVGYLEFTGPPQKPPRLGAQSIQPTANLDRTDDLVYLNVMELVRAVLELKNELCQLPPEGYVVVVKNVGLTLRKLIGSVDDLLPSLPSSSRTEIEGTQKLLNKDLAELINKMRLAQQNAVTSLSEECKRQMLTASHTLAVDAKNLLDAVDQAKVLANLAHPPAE
Chain of Myosin light chain kinase, smooth muscle (Homo sapiens) (Q15746 whole entry): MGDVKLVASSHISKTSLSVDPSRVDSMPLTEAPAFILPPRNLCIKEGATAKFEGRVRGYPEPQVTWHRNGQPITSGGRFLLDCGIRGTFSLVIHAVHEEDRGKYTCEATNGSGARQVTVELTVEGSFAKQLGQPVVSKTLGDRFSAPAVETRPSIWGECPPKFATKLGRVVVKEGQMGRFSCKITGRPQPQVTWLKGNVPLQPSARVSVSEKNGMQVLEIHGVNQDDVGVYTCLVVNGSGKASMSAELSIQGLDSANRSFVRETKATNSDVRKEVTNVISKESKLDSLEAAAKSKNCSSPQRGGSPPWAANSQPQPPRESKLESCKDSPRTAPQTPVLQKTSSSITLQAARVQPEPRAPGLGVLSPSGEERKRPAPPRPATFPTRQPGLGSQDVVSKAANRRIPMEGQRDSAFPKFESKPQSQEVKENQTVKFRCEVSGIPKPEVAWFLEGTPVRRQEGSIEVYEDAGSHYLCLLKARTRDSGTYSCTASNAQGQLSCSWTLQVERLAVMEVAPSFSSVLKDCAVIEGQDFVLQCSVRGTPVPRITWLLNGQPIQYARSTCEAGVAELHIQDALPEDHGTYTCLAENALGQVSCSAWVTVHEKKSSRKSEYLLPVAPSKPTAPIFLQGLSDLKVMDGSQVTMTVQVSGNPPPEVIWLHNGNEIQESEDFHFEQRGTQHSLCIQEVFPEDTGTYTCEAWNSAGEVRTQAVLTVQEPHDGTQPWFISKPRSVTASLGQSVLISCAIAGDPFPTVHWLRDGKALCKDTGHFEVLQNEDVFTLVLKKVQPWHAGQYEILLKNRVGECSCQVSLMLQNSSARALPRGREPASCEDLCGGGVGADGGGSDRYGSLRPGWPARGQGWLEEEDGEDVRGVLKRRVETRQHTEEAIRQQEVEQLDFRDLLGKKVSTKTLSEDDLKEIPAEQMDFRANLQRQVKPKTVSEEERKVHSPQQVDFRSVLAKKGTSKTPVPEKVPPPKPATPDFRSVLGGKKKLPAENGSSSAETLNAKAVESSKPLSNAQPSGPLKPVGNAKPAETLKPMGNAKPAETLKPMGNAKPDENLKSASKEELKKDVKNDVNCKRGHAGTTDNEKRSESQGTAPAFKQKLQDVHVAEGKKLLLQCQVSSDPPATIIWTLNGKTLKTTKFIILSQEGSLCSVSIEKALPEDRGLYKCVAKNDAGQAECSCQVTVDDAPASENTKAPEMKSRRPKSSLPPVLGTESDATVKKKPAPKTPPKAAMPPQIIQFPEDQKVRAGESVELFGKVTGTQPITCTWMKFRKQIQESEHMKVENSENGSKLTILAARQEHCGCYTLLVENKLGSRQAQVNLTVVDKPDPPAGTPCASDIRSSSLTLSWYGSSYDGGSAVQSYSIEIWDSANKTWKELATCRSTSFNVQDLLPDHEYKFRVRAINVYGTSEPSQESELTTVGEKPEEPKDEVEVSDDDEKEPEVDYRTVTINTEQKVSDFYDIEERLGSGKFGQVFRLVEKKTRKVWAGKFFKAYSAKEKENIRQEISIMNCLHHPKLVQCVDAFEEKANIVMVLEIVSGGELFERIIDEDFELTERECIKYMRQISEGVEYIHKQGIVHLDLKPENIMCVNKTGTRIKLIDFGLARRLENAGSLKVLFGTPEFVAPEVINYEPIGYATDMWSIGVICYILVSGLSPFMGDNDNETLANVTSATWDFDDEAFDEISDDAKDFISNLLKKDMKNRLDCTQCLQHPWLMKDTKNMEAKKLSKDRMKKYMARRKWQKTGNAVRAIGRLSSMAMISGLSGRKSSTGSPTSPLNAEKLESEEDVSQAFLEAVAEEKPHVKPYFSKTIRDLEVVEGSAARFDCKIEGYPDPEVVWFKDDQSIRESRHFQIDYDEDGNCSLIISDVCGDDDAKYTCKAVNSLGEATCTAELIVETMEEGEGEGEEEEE
Chain of Dual specificity protein kinase TTK (Homo sapiens) (P33981 whole entry): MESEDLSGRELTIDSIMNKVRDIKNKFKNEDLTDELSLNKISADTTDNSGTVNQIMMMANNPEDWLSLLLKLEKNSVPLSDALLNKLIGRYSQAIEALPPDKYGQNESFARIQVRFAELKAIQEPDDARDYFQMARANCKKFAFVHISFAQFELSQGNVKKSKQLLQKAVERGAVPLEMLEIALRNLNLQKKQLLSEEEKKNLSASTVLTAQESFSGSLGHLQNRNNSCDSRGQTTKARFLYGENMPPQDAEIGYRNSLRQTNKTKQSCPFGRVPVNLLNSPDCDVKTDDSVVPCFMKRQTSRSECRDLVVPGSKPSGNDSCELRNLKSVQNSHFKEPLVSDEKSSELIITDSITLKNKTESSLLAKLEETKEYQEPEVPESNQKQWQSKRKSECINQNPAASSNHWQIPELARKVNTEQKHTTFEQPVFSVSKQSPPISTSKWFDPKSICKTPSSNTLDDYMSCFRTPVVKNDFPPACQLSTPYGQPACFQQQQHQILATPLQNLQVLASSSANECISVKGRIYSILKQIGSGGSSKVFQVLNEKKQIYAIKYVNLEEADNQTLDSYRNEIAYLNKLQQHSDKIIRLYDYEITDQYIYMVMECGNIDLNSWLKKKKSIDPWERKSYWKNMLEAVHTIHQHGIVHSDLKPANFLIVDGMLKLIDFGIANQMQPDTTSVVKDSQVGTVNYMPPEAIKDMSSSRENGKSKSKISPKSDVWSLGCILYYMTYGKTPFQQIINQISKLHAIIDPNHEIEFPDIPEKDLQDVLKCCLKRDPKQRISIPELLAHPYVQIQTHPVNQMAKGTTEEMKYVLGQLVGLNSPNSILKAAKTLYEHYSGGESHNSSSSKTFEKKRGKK
Chain of Ribosomal protein S6 kinase alpha-5 (Homo sapiens) (O75582 whole entry, looked up): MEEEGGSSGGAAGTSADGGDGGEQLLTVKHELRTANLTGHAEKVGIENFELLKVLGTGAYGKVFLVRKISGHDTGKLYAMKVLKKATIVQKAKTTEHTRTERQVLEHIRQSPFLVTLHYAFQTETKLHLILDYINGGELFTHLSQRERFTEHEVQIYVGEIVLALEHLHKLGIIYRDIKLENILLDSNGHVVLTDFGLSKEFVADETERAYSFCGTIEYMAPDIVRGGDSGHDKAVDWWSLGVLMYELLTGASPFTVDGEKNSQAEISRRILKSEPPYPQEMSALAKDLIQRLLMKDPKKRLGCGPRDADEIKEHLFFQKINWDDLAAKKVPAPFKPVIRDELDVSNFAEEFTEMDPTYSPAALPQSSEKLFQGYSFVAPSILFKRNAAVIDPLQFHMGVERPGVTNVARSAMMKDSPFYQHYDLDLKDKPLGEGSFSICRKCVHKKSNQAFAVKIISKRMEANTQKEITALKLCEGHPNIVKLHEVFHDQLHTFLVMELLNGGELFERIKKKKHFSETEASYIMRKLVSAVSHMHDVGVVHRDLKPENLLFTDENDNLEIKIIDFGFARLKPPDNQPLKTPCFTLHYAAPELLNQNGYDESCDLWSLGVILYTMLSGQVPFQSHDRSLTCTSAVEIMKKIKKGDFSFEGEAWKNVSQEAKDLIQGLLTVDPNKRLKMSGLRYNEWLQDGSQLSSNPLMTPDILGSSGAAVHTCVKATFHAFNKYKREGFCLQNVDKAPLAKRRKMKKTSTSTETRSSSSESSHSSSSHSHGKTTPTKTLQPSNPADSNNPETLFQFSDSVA
Chain of Serine/threonine-protein kinase Sgk2 (Homo sapiens) (Q9HBY8 whole entry): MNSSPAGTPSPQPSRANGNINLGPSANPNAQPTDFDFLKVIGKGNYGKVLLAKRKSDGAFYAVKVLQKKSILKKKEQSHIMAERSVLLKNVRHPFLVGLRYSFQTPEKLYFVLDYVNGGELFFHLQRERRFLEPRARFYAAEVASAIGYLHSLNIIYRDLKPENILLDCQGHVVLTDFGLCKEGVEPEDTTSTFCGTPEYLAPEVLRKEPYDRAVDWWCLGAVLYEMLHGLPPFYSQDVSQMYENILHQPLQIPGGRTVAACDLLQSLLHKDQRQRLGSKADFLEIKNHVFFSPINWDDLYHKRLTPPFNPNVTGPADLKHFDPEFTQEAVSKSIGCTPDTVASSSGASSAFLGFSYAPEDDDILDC

O=C1c2ccc(Nc3ccc(F)cc3F)cc2CCc2ccc(OC[C@H](O)CO)cc21 [Skepinone-L] gave an Activity [1] of 100%, an Activity [2] of 72% and an Activity [3] of 95%. For the same molecule, the IC50 [4] was 90 nM, the Activity [5] was 98% and the Activity [6] was 99%. The Activity [7] was 87%, the Activity [8] was 78% and the Activity [9] was 83%. The Activity [10] was 94%, the Activity [11] was 98% and the Activity [12] was 100%. The IC50 [13] was 60 nM, the Activity [14] was 99% and the Activity [15] was 102%. For the same molecule, the Activity [16] was 83%, the Activity [17] was 100% and the Activity [18] was 87%. The Activity [19] was 89%, the Activity [20] was 77% and the Activity [21] was 106%. For the same molecule, the Activity [22] was 61%, the Activity [23] was 98% and the Activity [24] was 100%. The Activity [25] was 85%, the Activity [26] was 107% and the Activity [27] was 97%. The Activity [28] was 82%.
